Patent EP0519427A2, “N-substituted-3-iodopropiolamide, production and use thereof” (priority 1991, dated 1992)

Key:
[1] = system: wood rot fungi; assay: Preserving activity for wood preservatives, overall statement for both fungi; type: cell-based, Tyromyces palustris, Coriolus versicolor; settings: summary of Table 2
Method: (§1) This test was conducted according to Specification No.1 of Japan Wood Preserving Association, enacted in 1979, amended in 1989 and titled "Test methods of preserving activity for wood preservatives used in the coating, spraying and dipping treatment".
(§2) • ① Tyromyces palustris (Ber. et Curt.) Murr., FFPRI 0507 --"Ouzuratake" • ② Coriolus versicolor(L. ex Fr.) Quélet, FFPRI 1030 --"Kawaratake"
(§3) These two fungi are classified as wood rot fungi.
(§4) Culture media comprised culture jars (cylindrical jars of bottom diameter 8-9 cm, opening diameter 6-7 cm and height 15-18 cm), in which quartz sand of 250 g (the size of which corresponds to 20-30 mesh) was put first, and then the solution of 70 ml containing 2.0 % malt extracts and 1.0 % peptone was introduced, over which chips of the beech or other broadleaf tree were spread at about 2 mm thickness, and then sterilized at 120 °C for 30 minutes in the wet heated sterilizer.
(§5) Fungi were cultured at 26 ± 2 °C with shaking using the culture solution of 2.0 % malt extracts and 1.0 % peptone. After sufficient breeding was obtained, the fungi solution of about 3 ml was spread all over the culture medium, and then the fungi were cultured at 26 ± 2 °C with the relative humidity of over 70 %. After 10-15 days when the fungi layer sufficiently covered the culture medium, the fungi were served for the tests.
(§6) Wood specimens were the sapwood of intact cedar and beech, the dimension of which was 5 mm thick, 20 mm wide and 40 mm long. The grain face was of 20 mm width and 40 mm length. The side faces were treated with cold-setting epoxy resin.
(§7) The antimicrobial operation was performed with specifying types of fungi for corresponding type of trees. The combinations were as follows: Cedar----Tyromyces palustris ("Ouzuratake") Beech----Coriolus versicolor ("Kawaratake")
(§8) The test specimens were of two types, treated and untreated specimens, respectively.
(§9) The treated specimens referred to the wood specimens coated by brushing, spraying or dipping with wood preservatives. The amount of applied preservatives was 110 ± 10 g/m².
(§10) The amount of applied preservatives for each test specimen was calculated by the following equation:
(§11) The amount of applied preservatives (g/m²)=(W₁-W₂)/A wherein W₁ : weight of the test specimen after absorption(g), W₂ : weight of the test specimen before absorption(g) and A: surface area of test specimen except both butt surfaces (m²)
(§12) 2-7-1 The test specimens prepared in the previous section were dried at 60 ± 2 °C with a recirculating dryer for 48 hours, and were allowed to stand in a desiccator for about 30 minutes, and then the weight (W₃) was measured to an accuracy of 0.01 g.
(§13) 2-7-2 Three of each treated and untreated specimens were assembled in the Teflon casing. After sterilizing, the two assemblies were put on their 40 × 5 mm face on the fungi layer in the separate jar. They were kept at 26 ± 2 °C under the relative humidity of over 70 % for eight weeks.
(§14) 2-7-3 After the eight weeks had elapsed, the test specimens were taken out, and mycelia and other attachments of them were removed neatly. After air-drying for 24 hours, the test specimens were dried at 60 ± 2 °C in a recirculating dryer for 48 hours, and were allowed to stand in a desiccator for about 30 minutes, and then the weight (W₄) was measured to an accuracy of 0.01 g.
(§15) The test results were presented by the ratio of average weight loss of test specimens due to antimicrobial operation. The standard deviation and coefficient of variation were also determined. The ratio of weight loss for each test specimen was calculated by the following equation, and its average was also determined: The ratio of weight loss(%) = (W₃ - W₄) / W₃ × 100 [formula] . Lower value of the ratio of weight loss corresponds to higher wood preserving activity. […]

[2] = system: Coptofermes formosanus SHIRAKI; assay: Anti-termite activity, contact toxicity on treated quartz sand; type: in vivo
Method: This test was conducted on the basis of the method described in Specification No.11 of Japan Wood Preserving Association, enacted in 1981 and titled "The test methods of anti-termite activity for anti-termite agent used in the coating, spraying and dipping treatment, (1) Laboratory test methods".
The termite to be used was Coptofermes formosanus SHIRAKI ("ieshiroari").
4-2-1 The treated quartz sand was prepared as follows : The quartz sand, which passed through a sieve with 60 mesh screen, of 3 g was mixed with the BACTRO-AGAR solution of 1 ml with good agitation. Then, water content was adjusted to 5 %.
4-2-2 The test quartz sand was prepared as follows : The anti-termite agent solution of intended concentration (ppm) was added to the above treated quartz sand, then was mixed, and then was allowed to stand for 14 days to vaporize solvents.
4-2-3 The test quartz sand of 4 g were put into a Petri dish (6 cm in diameter) sterilized with dry heat.
4-2-4 Ten termite workers were randomly sampled from their nest, and then put on the quartz sand.
4-2-5 Each Petri dish was placed in a vessel containing water in the bottom, and then the vessel was allowed to stand in the constant temperature room at 28 ± 2 °C for 14 days. The number of the dead termites was observed and recorded. The first day : every 2 hours for 8 hours. After the second day : every 24 hour.
4-2-6 Test was repeated three times for each concentration of anti-termite agent solution.
4-3-1 Each time when observing, the number of healthy termites and dead termites were recorded.
4-3-2 The results are shown below in Table 4. […]

[3] = system: Coriolus versicolor(L. ex Fr.) Quélet, FFPRI 1030; assay: Preserving activity for wood preservatives (weight loss of treated wood); type: cell-based; settings: beech sapwood specimens, 110 ± 10 g/m² preservative applied (0.5% xylene solution per table note), eight weeks at 26 ± 2 °C; lower = higher preserving activity
Method: as §1, §2, §3, §4, §5, §6, §7, §8, §9, §10, §11, §12, §13, §14, §15

[4] = system: Tyromyces palustris (Ber. et Curt.) Murr., FFPRI 0507; assay: as above; type: cell-based; settings: cedar sapwood specimens, 110 ± 10 g/m² preservative applied (0.5% xylene solution per table note), eight weeks at 26 ± 2 °C; lower = higher preserving activity
Method: as §1, §2, §3, §4, §5, §6, §7, §8, §9, §10, §11, §12, §13, §14, §15

[5] = concentration 100 ppm, term of contact 1 day
[6] = concentration 100 ppm, term of contact 2 days
[7] = concentration 100 ppm, term of contact 3 days
[8] = concentration 100 ppm, term of contact 5 days
[9] = concentration 1000 ppm, term of contact 1 day
[10] = concentration 1000 ppm, term of contact 2 days
[11] = concentration 1000 ppm, term of contact 3 days
[12] = concentration 1000 ppm, term of contact 5 days

| Compound | wood preserving activity (statement in words) [1] | Death rate (%) [2, 5] | Death rate (%) [2, 6] | Death rate (%) [2, 7] | Death rate (%) [2, 8] | Death rate (%) [2, 9] | Death rate (%) [2, 10] | Death rate (%) [2, 11] | Death rate (%) [2, 12] | Ratio of weight loss (%), C. versicolor [3] | Ratio of weight loss (%), T. palustris [4] |
| --- | --- | --- | --- | --- | --- | --- | --- | --- | --- | --- | --- |
| CC(C)(C)NC(=O)C#CI [Example 1, N-(tert-Butyl)-3-iodopropiolamide] | excellent wood preserving activity | 0% | 0% | 30% | 100% | 0% | 50% | 100% | 100% | 11.9% | 2.4% |
| CCCCCCCCCCNC(=O)C#CI [Example 2, N-(n-Decyl)-3-iodopropiolamide] | excellent wood preserving activity | – | – | – | – | – | – | – | – | 15.9% | 0.2% |
| CCCCNC(=O)C#CI [Example 4, N-(n-Butyl)-3-iodopropiolamide] | excellent wood preserving activity | 0% | 0% | 30% | 100% | 0% | 30% | 100% | 100% | 1.6% | 0.0% |
| CCC(C)NC(=O)C#CI (stereo not drawn) [Example 5, N-(sec-Butyl)-3-iodopropiolamide] | excellent wood preserving activity | – | – | – | – | – | – | – | – | 7.2% | 2.5% |
| CC(C)CNC(=O)C#CI [Example 6, N-Isobutyl-3-iodopropiolamide] | excellent wood preserving activity | – | – | – | – | – | – | – | – | 1.5% | 0.0% |
| CCCCCNC(=O)C#CI [Example 7, N-(n-Pentyl)-3-iodopropiolamide] | excellent wood preserving activity | – | – | – | – | – | – | – | – | 3.1% | 2.2% |
| CCCCCCNC(=O)C#CI [Example 8, N-(n-Hexyl)-3-iodopropiolamide] | excellent wood preserving activity | 0% | 0% | 20% | 100% | 0% | 0% | 70% | 100% | 1.7% | 1.3% |
| CCCCCCCNC(=O)C#CI [Example 9, N-(n-Heptyl)-3-iodopropiolamide] | – | – | – | – | – | – | – | – | – | 12.0% | 3.3% |
| CCCCCCCCNC(=O)C#CI [Example 10, N-(n-Octyl)-3-iodopropiolamide] | – | – | – | – | – | – | – | – | – | 8.4% | 5.0% |
| CCCCCCCCCNC(=O)C#CI [Example 11, N-(n-Nonyl)-3-iodopropiolamide] | – | – | – | – | – | – | – | – | – | 14.2% | 5.8% |
